Residue numbers refer to the chain shown, from its start. Like-named read-outs stand apart in the source and are kept apart here.
Assays:
[1] = Rat intravenous pharmacokinetics (volume of distribution, plasma clearance); conditions: for clearance: male, Sprague-Dawley, plasma, iv, 3 mg/kg; for rat Vdist: single intravenous dose (3 mg/kg)
Experimental: (§1) To test for volume of distribution, Male Sprague Dawley rats (N=3) are administered a single 3 mg/kg intravenous dose of compound. Multiple plasma samples are collected at time points from 0.08 to 24 hours post-dose. The plasma samples are analyzed by LC/MS/MS to determine the plasma concentrations. Plasma pharmacokinetic calculations are performed to determine the pharmacokinetic parameters including Vdist and plasma clearance (Clp).

[2] = target: T1, human CRF1 (Homo sapiens, UniProt P34998); test: CRF1 filter binding assay; conditions: HEK-hCRF1 membranes, 125I-sauvagine; read-out: Ki (inhibition constant)
T1 construct: expressed in transfected cells; membranes
T1 sequence (P34998 24-415): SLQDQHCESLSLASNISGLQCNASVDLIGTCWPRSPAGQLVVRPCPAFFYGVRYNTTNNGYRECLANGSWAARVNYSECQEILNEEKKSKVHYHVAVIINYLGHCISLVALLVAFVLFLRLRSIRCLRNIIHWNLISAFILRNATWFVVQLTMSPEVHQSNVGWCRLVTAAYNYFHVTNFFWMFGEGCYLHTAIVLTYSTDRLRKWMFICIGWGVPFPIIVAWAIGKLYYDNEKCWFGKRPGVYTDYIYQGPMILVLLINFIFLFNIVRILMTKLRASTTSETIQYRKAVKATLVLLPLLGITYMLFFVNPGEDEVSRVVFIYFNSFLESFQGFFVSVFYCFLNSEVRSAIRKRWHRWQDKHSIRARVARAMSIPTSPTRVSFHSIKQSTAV
Experimental: The limitations of plasmid-based human CRF1 expression, in terms of generating a recombinant cell line with sufficient receptor density to develop a binding assay, are overcome by using a Phoenix retroviral expression system licensed from Stanford. The stable HEK-hCRF1 cell line is used to prepare membranes and binding reactions (200 μl) are set up as follows: 50 μl of ^125I-sauvagine (0.2 nM final), 50 μl compound and 100 μL CRF1 membrane (25 μg/reaction). The reactions are incubated at room temperature for 2 hours and then terminated by filtration through pre-treated FB Millipore glass fiber filter plates (96 well). The plates are wash twice with ice-cold assay buffer (50 mM tris, 12.5 mM NaCl, 1 mM EDTA, 10 mM MgCl2, 0.05% BSA, pH 7.2), air dried over night and counted with 100 μl Microscint 40 in a MicroBeta counter. Non-specific binding (NSB) is determined in the presence of 0.5 μM non-labeled sauvagine. Triplicate determinations are typically run and the median data points plotted by Graph Pad Prism.

[3] = in vivo; conditions: male, Sprague-Dawley, rat, iv, 3 mg/kg
Experimental: as §1

[4] = male, Sprague-Dawley, in vivo, iv, 3 mg/kg
Experimental: as §1

[5] = target: T2, binding of ^125I-sauvagine to the cerebellum (Rattus norvegicus, UniProt P35353); test: In vivo potency assessment using ex vivo binding; conditions: oral route, ex vivo binding of 125I-sauvagine to the cerebellum
T2 construct: from tissue; host or cells: rat cerebellum
T2 sequence (P35353 24-415): T1 sequence (P34998 24-415) with H6R, S9N, A13T, I16V, M153V, G163A, I209V, Y229H, H356R
Experimental: To assess in vivo potency, a compound of the present invention is evaluated using ex vivo binding. Using the procedures as provided in D. R. Gehlert et al., EJP 509: 145-153 (2005), a compound is administered to a rat via the oral route.

[6] = target: T3, human CRF2 (Homo sapiens, UniProt Q13324); test: CRF2 filter binding assay; conditions: 50 μM compound, HEK-hCRF2 membranes, 125I-sauvagine; read-out: percent inhibition at 50 μM
T3 construct: expressed in transfected cells; membranes
T3 sequence (Q13324 1-411): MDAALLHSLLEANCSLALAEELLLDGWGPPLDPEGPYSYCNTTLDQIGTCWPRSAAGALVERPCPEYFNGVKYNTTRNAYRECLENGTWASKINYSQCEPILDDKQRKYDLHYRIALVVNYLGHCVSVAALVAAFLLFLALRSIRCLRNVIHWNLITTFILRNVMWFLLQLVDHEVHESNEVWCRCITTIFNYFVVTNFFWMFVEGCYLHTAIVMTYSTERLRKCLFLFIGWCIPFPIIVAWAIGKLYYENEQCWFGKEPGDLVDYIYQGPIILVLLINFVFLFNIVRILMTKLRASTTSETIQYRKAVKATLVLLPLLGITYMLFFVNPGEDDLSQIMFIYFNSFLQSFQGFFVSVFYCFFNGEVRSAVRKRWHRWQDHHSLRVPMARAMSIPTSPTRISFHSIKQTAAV
Experimental: The limitations of plasmid-based human CRF2 expression, in terms of generating a recombinant cell line with sufficient receptor density to develop a binding assay, are overcome by using a Phoenix retroviral expression system licensed from Stanford. The stable HEK-hCRF2 cell line is used to prepare membranes and binding reactions (200 A1) are set up as follows: 50 ul of ^125I-sauvagine (0.2 nM final concentration), 501 compound and 100 μl CRF2 membrane (25 μg/reaction). The reactions are incubated at room temperature for 2 hours and then terminated by filtration through pre-treated FB Millipore glass fiber filter plates (96 well). The plates are washed twice with ice-cold assay buffer (50 mM tris, 12.5 mM NaCl, 1 mM EDTA, 10 mM MgCl2, 0.05% BSA, pH 7.2), air dried over night and counted with 100 μl Microscint 40 in a MicroBeta counter. Non-specific binding (NSB) is determined in the presence of 0.5 μM non-labeled sauvagine. Alternatively, compounds are evaluated using a Scintillation Proximity assay. […] Bound radioactivity is assessed using a Wallac Trilux scintillation counter. Binding is assessed typically using triplicate determinations and the median data points plotted by Graph Pad Prism. […]

Row | SMILES | rat Vdist [1] | clearance [3] | rat Vdist [4] | also measured
1 | CCCCN(CC)c1nc(C)nc2c1c(C)cn2-c1c(C)cc(C)cc1C [CP154526] | 114 L/kg |  |  | clearance [1]: 83 mL/min/kg
2 | CCC(CC)c1cc(C)nn2c(-c3sc4ccc(F)cc4c3C)c(C)nc12 [Example 1, 8-(1-ethyl-propyl)-2,6-dimethyl-3-(5-fluoro-3-methyl-benzo[b]thiophen-2-yl)-imidazo[1,2-b]pyridazine] | 8 L/kg |  |  | clearance [1]: 9 mL/min/kg; Ki [2]: 16.3 nM
3 | CCC(CC)c1cc(C)nn2c(-c3sc4ccccc4c3C)c(C)nc12 [Example 2, 8-(1-ethyl-propyl)-2,6-dimethyl-3-(3-methyl-benzo[b]thiophen-2-yl)-imidazo[1,2-b]pyridazine] |  | 12 mL/min/kg | 10 L/kg | 
4 | CCC(CC)c1cc(C)nn2c(-c3c(C)oc4c(C(C)(C)O)cccc34)c(C)nc12 [Example 88, 2-{3-[8-(1-ethyl-propyl)-2,6-dimethyl-imidazo[1,2-b]pyridazin-3-yl]-2-methyl-benzofuran-7-yl}-propan-2-ol] |  |  |  | inhibition at 50 µM [6]: 27 ± 3%; Ki [2]: 19.2 ± 4.8 nM

Further lines, with some results ahead:

Row | rat Vdist [1] | clearance [3] | rat Vdist [4] | SMILES | also measured
5 |  | 29 mL/min/kg | 17 L/kg | CCC(CC)c1cc(C)nn2c(-c3cc4cc(F)ccc4n3C)c(C)nc12 [Example 8, 8-(1-ethyl-propyl)-2,6-dimethyl-3-(5-fluoro-1-methyl-indol-2-yl)-imidazo[1,2-b]pyridazine] | 
6 |  | 14 mL/min/kg | 15 L/kg | CCC(CC)c1cc(C)nn2c(-c3cc4ccc(Cl)cc4n3C)c(C)nc12 [Example 34, 3-(6-chloro-1-methyl-1H-indol-2-yl)-8-(1-ethyl-propyl)-2,6-dimethyl-imidazo[1,2-b]pyridazine] | ED50 [5]: 5.5 mg/kg
7 | 76 L/kg |  |  | CCCN(CCC)c1cc(C)nc2c(-c3cnc(N(C)C)cc3C)c(C)nn12 [NBI30775] | 

Source: patent US7557103B2, “Imidazopyridazine compounds” (Eli Lilly and Company, priority 2005, dated 2009)
